These results are taken from patent US9814865B2, “Coated medical device” (Cook Medical Technologies LLC, priority 2000, dated 2017).

A short description of this series: physical adhesion test simulating introduction and deployment of paclitaxel-coated stents. The series is classed as physicochemical. The following applies: passed through water-filled guiding catheter, balloon-expanded, measured by spectrometry. From the text:
More particularly, the adhesion of paclitaxel to two types of stainless steel, grit abraded stents was compared to its adhesion to stents of those types whose surfaces had instead been plasma treated prior to the direct deposition of paclitaxel thereon (control stents). The coated stents of both types, that is, medical devices 10 of the present invention and control stents, were then subjected to a physical adhesion test which simulated the rate at which paclitaxel would be delivered during introduction and deployment of the stents in clinical use. The adhesion test involved passing each stent through a water-filled guiding catheter of appropriate diameter and inflating the balloon catheter to expand each stent to its intended diameter. The stents are already mounted before coating. The amount of paclitaxel remaining on each stent was then measured by spectrometry and compared to the amount of paclitaxel initially posited on each stent. Stents having surfaces 16 roughened or textured by abrasion with different abrasive grits 24 retained 84.1±10.2% of the paclitaxel originally applied, while stents having plasma treated surfaces retained only 44.3±8.7% of the paclitaxel originally applied (p<0.0001).

For the compound `CC(=O)O[C@H]1C(=O)[C@@]2(C)[C@H]([C@H](OC(=O)c3ccccc3)[C@]3(O)C[C@H](OC(=O)[C@H](O)[C@@H](NC(=O)c4ccccc4)c4ccccc4)C(C)=C1C3(C)C)[C@]1(OC(C)=O)CO[C@@H]1C[C@@H]2O` [paclitaxel], the “paclitaxel originally applied retained on stent after adhesion test” value is 44.3±8.7% (stainless steel control stents with plasma treated surfaces, p<0.0001 vs abraded) and 84.1±10.2% (stainless steel stents, surfaces roughened or textured by abrasion with different abrasive grits).
